# In PMC5442318, “Hundreds of dual-stage antimalarial molecules discovered by a functional gametocyte screen” (Nature Communications, 2017):
# Legend:
# [1] = tested on: Plasmodium berghei asexual blood stages; test: In vivo antimalarial therapeutic efficacy, P. berghei murine model; parameters: species or system CD1 mice
# Protocol: Two out of the six compounds progressed to SMFA, TCMDC-123767 (cluster 30) and TCMDC-141154 (cluster 4), were evaluated in vivo in the Plasmodium berghei murine model. Selection criteria was based on the compound potencies in both asexual stages and gametocytes in the Pf FGAA, as well as on their transmission-blocking activity observed in the SMFA (Table 1). Owing to compound availability, TCMDC-141154 had to be replaced by a close analogue from cluster 4: TCMDC-140549 (Supplementary Data 3). Compounds were tested at 50 mg kg^−1 single dose 2-day oral treatment and efficacy was measured as a reduction of asexual blood stages parasitaemia greater than 40% compared with the vehicle-treated mice.
# Pathogen-free CD1 mice (Hsd:ICR) were obtained from Harlan Interfauna Iberica (Barcelona, Spain). Eight weeks old female CD-1 mice were infected intravenously with 10^7 infected erythrocytes (day 0). Dosing solutions were prepared in water containing 5% DMSO/20% Captisol, at a target dose of 50 mg kg^−1. Mice received two oral doses once a day according to their body weight (20 ml kg^−1) starting at day 2 after infection. Control mice received the same treatment schedule with the vehicle used for the compound preparation. Samples from mice peripheral blood were taken before starting treatment and 24 h after finishing the dosing, to measure parasitaemia by flow cytometry, using the YOYO-1 staining, to assess the reduction of parasitaemia compared with the vehicle-treated mice.
# [2] = Intrinsic clearance assay; assay type: in vitro ADME; conditions: mouse liver microsomes, 0.5 μM
# Protocol: Intrinsic clearance (CLi) values were determined in mouse liver microsomes (M1000, XenoTech). Test compounds (final concentration 0.5 μM) were incubated at 37 °C for 45 min in 50 mM potassium phosphate buffer (pH 7.4) containing 0.5 mg microsomal protein per ml. The reaction was started by addition of cofactor NADPH ([…], Sigma) at 1 mM final concentration. The final concentration of organic solvent (DMSO) was limited to 0.25% of the final volume. At 0, 5, 15, 30, and 45 min, an aliquot (100 μl) was taken, quenched with acetonitrile containing an appropriate internal standard, and analysed by HPLC-MS/MS (Applied Biosystems). CLi was determined from the first-order elimination constant by nonlinear regression, corrected for the volume of the incubation and assuming […] mouse protein per g liver. Values for CLi were expressed as ml min^-1 per g liver.
structure (smiles),measurement,setting,value
FC(F)(F)c1cnc(Sc2nnc(-c3ccncc3)o2)c(Cl)c1 [TCMDC-123767],reduction of asexual blood stages parasitaemia (threshold 40% vs vehicle),"[1]; 50 mg kg^−1 single dose 2-day oral treatment, mice",not reduced above the threshold
same,ED50,"[1]; single dose 2-day treatment, oral, P. berghei mice",> 50 mg/kg
same,in vitro microsome clearance,[2],7.9 ml min^−1 per g liver
